Starred links: 1 amine or outer side, 2 acyl side, 3 side chain; linkers in the order of their positions; H or OH if unused. Non-standard residues stand in square brackets, D forms with d. Residues, ends and D or L forms follow the SMILES beside them. Groups on a side chain read outwards from the residue. *: point of attachment. C18 diacid = O=C(O)CCCCCCCCCCCCCCCCC(=O)*; γGlu = O=C(O)[C@H](CCC(=O)[*:2])N[*:1]; Stearoyl = CCCCCCCCCCCCCCCCCC(=O)*; Palmitoyl = CCCCCCCCCCCCCCCC(=O)*; αMeF = C[C@](N)(Cc1ccccc1)C(=O)O; Myristoyl = CCCCCCCCCCCCCC(=O)*; αMeS = C[C@](N)(CO)C(=O)O; PEG2 = NCCOCCOCCC(=O)O; AEEA = NCCOCCOCC(=O)O; Aib = CC(C)(N)C(=O)O

Experiment [1] addresses human GLP-1 receptor (hGLP-1R) (Homo sapiens, UniProt P43220). As to the kind of experiment: cAMP production (HTRF) in CHO cells expressing hGLP-1R. It counts as cell-based. On the set-up: expressed in transfected cells. The following applies: for EC50: Table 6, peptides modified at position 17, cAMP in CHO hGLP-1R cells, geometric mean, read-out: hGLP-1R EC50; for % Relative Potency Ratio: Table 6, % GLP-1R activity relative to GLP-1 / % GlucR activity relative to glucagon. A digest of the protocol: (§1)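 Potency values represent EC50 from 4-parameter logistic curves of HTRF % Delta F signal. Receptor-expressing CHO cells (hGCGR 2×10^5 cells/mL, hGLP-1R 1×10^5 cells/mL) were exposed for 30 min at room temperature before two-step cAMP detection.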
On the technique in general: cAMP levels reflect the balance of adenylyl cyclase and phosphodiesterase activity.

The target in experiment [2] is human glucagon receptor (hGCGR) (Homo sapiens, UniProt P47871). The experiment can be described thus: cAMP production (HTRF) in CHO cells expressing hGCGR. It counts as cell-based. Also on record: expressed in transfected cells. The following applies: Table 6, peptides modified at position 17; cAMP in CHO hGCGR cells; geometric mean; read-out: hGluc-R EC50. Summed up:
as §1

Chain of human glucagon receptor (hGCGR) (P47871 26-477): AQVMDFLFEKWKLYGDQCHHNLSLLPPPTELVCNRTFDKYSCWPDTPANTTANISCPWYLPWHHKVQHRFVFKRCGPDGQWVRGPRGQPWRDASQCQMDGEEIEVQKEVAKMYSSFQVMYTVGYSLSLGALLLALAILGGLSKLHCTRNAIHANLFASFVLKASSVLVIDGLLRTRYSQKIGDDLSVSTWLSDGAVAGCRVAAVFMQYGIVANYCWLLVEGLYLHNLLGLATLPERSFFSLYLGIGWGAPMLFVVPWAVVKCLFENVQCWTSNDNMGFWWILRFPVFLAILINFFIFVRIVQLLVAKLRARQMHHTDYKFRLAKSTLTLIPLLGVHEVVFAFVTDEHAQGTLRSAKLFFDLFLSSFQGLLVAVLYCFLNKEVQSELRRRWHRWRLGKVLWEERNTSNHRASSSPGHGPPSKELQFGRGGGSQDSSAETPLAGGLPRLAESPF
Chain of human GLP-1 receptor (hGLP-1R) (P43220 24-463): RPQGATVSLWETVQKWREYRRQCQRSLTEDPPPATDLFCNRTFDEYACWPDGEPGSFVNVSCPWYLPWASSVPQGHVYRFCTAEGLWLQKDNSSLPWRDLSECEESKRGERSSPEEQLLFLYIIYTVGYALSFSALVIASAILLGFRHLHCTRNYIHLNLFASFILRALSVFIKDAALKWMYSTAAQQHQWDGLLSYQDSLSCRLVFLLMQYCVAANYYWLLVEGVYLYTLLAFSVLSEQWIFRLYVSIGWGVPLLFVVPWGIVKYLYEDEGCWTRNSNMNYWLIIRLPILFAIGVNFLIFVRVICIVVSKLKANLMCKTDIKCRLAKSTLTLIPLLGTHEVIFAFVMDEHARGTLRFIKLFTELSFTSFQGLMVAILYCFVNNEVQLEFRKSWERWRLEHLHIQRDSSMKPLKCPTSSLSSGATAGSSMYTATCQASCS

Consider `CCCCCCCCCCCCCCCCCC(=O)N[C@@H](CCC(=O)NCCOCCOCCC(=O)NCCOCCOCCC(=O)NCCCC[C@H](NC(=O)[C@H](CO)NC(=O)[C@H](CC(=O)O)NC(=O)[C@H](CC(C)C)NC(=O)[C@@H](NC(=O)[C@H](CCCCN)NC(=O)[C@H](CO)NC(=O)[C@@H](NC(=O)[C@H](CC(=O)O)NC(=O)[C@H](CO)NC(=O)[C@@H](NC(=O)[C@](C)(Cc1ccccc1)NC(=O)[C@H](CO)NC(=O)CNC(=O)[C@H](CCC(N)=O)NC(=O)[C@](C)(CO)NC(=O)[C@@H](N)Cc1c[nH]cn1)[C@@H](C)O)C(C)C)[C@@H](C)CC)C(=O)N[C@@H](C)C(=O)N[C@@H](C)C(=O)N[C@@H](CCC(N)=O)C(=O)N[C@@H](CC(=O)O)C(=O)N[C@@](C)(Cc1ccccc1)C(=O)N[C@H](C(=O)N[C@@H](CCC(N)=O)C(=O)NC(C)(C)C(=O)N[C@H](C(=O)N[C@H](C(=O)N[C@@H](CC(N)=O)C(=O)N[C@H](C(N)=O)[C@@H](C)O)[C@@H](C)CC)[C@@H](C)CC)C(C)C)C(=O)O` [Peptide 133] (H-H[αMeS]QGS[αMeF]TSDVSKILDSK([PEG2-PEG2-γGlu-Stearoyl])AAQD[αMeF]VQ[Aib]IINT-NH2; N-terminus assumed), for which, in experiment [1], the EC50 (commonly the concentration at which the effect is half-maximal) came to 0.00106 nM and the “% Relative Potency Ratio” value stood at 55.9. Moreover, the EC50 in experiment [2] is 0.03 nM.

`CCCCCCCCCCCCCCCC(=O)N[C@@H](CCC(=O)NCCOCCOCCC(=O)NCCOCCOCCC(=O)NCCCC[C@H](NC(=O)[C@H](CO)NC(=O)[C@H](CC(=O)O)NC(=O)[C@H](CC(C)C)NC(=O)[C@@H](NC(=O)[C@H](CCCCN)NC(=O)[C@H](CO)NC(=O)[C@@H](NC(=O)[C@H](CC(=O)O)NC(=O)[C@H](CO)NC(=O)[C@@H](NC(=O)[C@](C)(Cc1ccccc1)NC(=O)[C@H](CO)NC(=O)CNC(=O)[C@H](CCC(N)=O)NC(=O)[C@](C)(CO)NC(=O)[C@@H](N)Cc1c[nH]cn1)[C@@H](C)O)C(C)C)[C@@H](C)CC)C(=O)N[C@@H](C)C(=O)N[C@@H](C)C(=O)N[C@@H](CCC(N)=O)C(=O)N[C@@H](CC(=O)O)C(=O)N[C@@](C)(Cc1ccccc1)C(=O)N[C@H](C(=O)N[C@@H](CCC(N)=O)C(=O)NC(C)(C)C(=O)N[C@H](C(=O)N[C@H](C(=O)N[C@@H](CC(N)=O)C(=O)N[C@H](C(N)=O)[C@@H](C)O)[C@@H](C)CC)[C@@H](C)CC)C(C)C)C(=O)O` [Peptide 134] (H-H[αMeS]QGS[αMeF]TSDVSKILDSK([PEG2-PEG2-γGlu-Palmitoyl])AAQD[αMeF]VQ[Aib]IINT-NH2; N-terminus assumed): the “% Relative Potency Ratio” value in experiment [1] is listed as 50.1. In experiment [2], the EC50 amounted to 0.015 nM.

Turning to `CCCCCCCCCCCCCC(=O)N[C@@H](CCC(=O)NCCOCCOCCC(=O)NCCOCCOCCC(=O)NCCCC[C@H](NC(=O)[C@H](CO)NC(=O)[C@H](CC(=O)O)NC(=O)[C@H](CC(C)C)NC(=O)[C@@H](NC(=O)[C@H](CCCCN)NC(=O)[C@H](CO)NC(=O)[C@@H](NC(=O)[C@H](CC(=O)O)NC(=O)[C@H](CO)NC(=O)[C@@H](NC(=O)[C@](C)(Cc1ccccc1)NC(=O)[C@H](CO)NC(=O)CNC(=O)[C@H](CCC(N)=O)NC(=O)[C@](C)(CO)NC(=O)[C@@H](N)Cc1c[nH]cn1)[C@@H](C)O)C(C)C)[C@@H](C)CC)C(=O)N[C@@H](C)C(=O)N[C@@H](C)C(=O)N[C@@H](CCC(N)=O)C(=O)N[C@@H](CC(=O)O)C(=O)N[C@@](C)(Cc1ccccc1)C(=O)N[C@H](C(=O)N[C@@H](CCC(N)=O)C(=O)NC(C)(C)C(=O)N[C@H](C(=O)N[C@H](C(=O)N[C@@H](CC(N)=O)C(=O)N[C@H](C(N)=O)[C@@H](C)O)[C@@H](C)CC)[C@@H](C)CC)C(C)C)C(=O)O` [Peptide 135] (H-H[αMeS]QGS[αMeF]TSDVSKILDSK([PEG2-PEG2-γGlu-Myristoyl])AAQD[αMeF]VQ[Aib]IINT-NH2; N-terminus assumed), the “% Relative Potency Ratio” value in experiment [1] is on record as 72.8. The EC50 in experiment [2] amounted to 0.015 nM.

Take `CC(C)C[C@H](NC(=O)[C@H](CC(C)C)NC(=O)[C@H](Cc1c[nH]c2ccccc12)NC(=O)[C@H](CCCNC(=N)N)NC(=O)[C@@H](NC(=O)[C@H](Cc1ccccc1)NC(=O)[C@H](CC(=O)O)NC(=O)[C@H](CCC(N)=O)NC(=O)[C@H](C)NC(=O)[C@H](CCCNC(=N)N)NC(=O)[C@H](CCCCNC(=O)CC[C@H](NC(=O)CC[C@H](NC(=O)COCCOCCNC(=O)COCCOCCNC(=O)CC[C@H](NC(=O)CC[C@H](NC(=O)CCCCCCCCCCCCCCCCC(=O)O)C(=O)O)C(=O)O)C(=O)O)C(=O)O)NC(=O)[C@H](CO)NC(=O)[C@H](CC(=O)O)NC(=O)[C@H](CC(C)C)NC(=O)[C@](C)(Cc1ccccc1)NC(=O)[C@H](CCCCN)NC(=O)[C@H](CO)NC(=O)[C@@H](NC(=O)[C@H](CC(=O)O)NC(=O)[C@H](CO)NC(=O)[C@@H](NC(=O)[C@H](Cc1ccccc1)NC(=O)[C@@H](NC(=O)CNC(=O)[C@H](CCC(N)=O)NC(=O)C(C)(C)NC(=O)[C@@H](N)Cc1c[nH]cn1)[C@@H](C)O)[C@@H](C)O)C(C)C)C(C)C)C(=O)N[C@@H](CCC(=O)O)C(=O)NCC(=O)NC(C)(C)C(=O)O` [Peptide 137] (H-H[Aib]QGTFTSDVSK[αMeF]LDSK([γGlu-γGlu-AEEA-AEEA-γGlu-γGlu-C18 diacid])RAQDFVRWLLEG[Aib]-OH; N-terminus assumed): in experiment [1], the EC50 was determined as 0.143 nM and the “% Relative Potency Ratio” value was 3.7. The EC50 in experiment [2] is 0.268 nM.

As for `CC(C)C[C@H](NC(=O)[C@H](Cc1c[nH]c2ccccc12)NC(=O)[C@H](CCCNC(=N)N)NC(=O)[C@@H](NC(=O)[C@H](Cc1ccccc1)NC(=O)[C@H](CC(=O)O)NC(=O)[C@H](CCC(N)=O)NC(=O)[C@H](C)NC(=O)[C@H](CCCNC(=N)N)NC(=O)[C@H](CCCCNC(=O)CC[C@H](NC(=O)CC[C@H](NC(=O)COCCOCCNC(=O)COCCOCCNC(=O)CC[C@H](NC(=O)CC[C@H](NC(=O)CCCCCCCCCCCCCCCCC(=O)O)C(=O)O)C(=O)O)C(=O)O)C(=O)O)NC(=O)[C@H](CO)NC(=O)[C@H](CC(=O)O)NC(=O)[C@H](CC(C)C)NC(=O)[C@](C)(Cc1ccccc1)NC(=O)[C@H](CCCCN)NC(=O)[C@H](CO)NC(=O)[C@@H](NC(=O)[C@H](CC(=O)O)NC(=O)[C@H](CO)NC(=O)[C@@H](NC(=O)[C@H](Cc1ccccc1)NC(=O)[C@@H](NC(=O)CNC(=O)[C@H](CCC(N)=O)NC(=O)C(C)(C)NC(=O)[C@@H](N)Cc1c[nH]cn1)[C@@H](C)O)[C@@H](C)O)C(C)C)C(C)C)C(=O)N[C@@H](CC(C)C)C(=O)N[C@@H](CCC(=O)O)C(=O)NC(C)(C)C(=O)NCC(=O)O` [Peptide 138] (H-H[Aib]QGTFTSDVSK[αMeF]LDSK([γGlu-γGlu-AEEA-AEEA-γGlu-γGlu-C18 diacid])RAQDFVRWLLE[Aib]G-OH; N-terminus assumed), in experiment [1], the concentration giving a half-maximal response (EC50) stood at 0.104 nM and the “% Relative Potency Ratio” value turned out to be 3.5. In addition, the EC50 in experiment [2] stood at 0.184 nM.

In the case of `CC(C)C[C@H](NC(=O)[C@H](Cc1c[nH]c2ccccc12)NC(=O)[C@H](CCCNC(=N)N)NC(=O)[C@@H](NC(=O)[C@H](Cc1ccccc1)NC(=O)[C@H](CC(=O)O)NC(=O)[C@H](CCC(N)=O)NC(=O)[C@H](C)NC(=O)[C@H](CCCNC(=N)N)NC(=O)[C@H](CCCCNC(=O)CC[C@H](NC(=O)CC[C@H](NC(=O)COCCOCCNC(=O)COCCOCCNC(=O)CC[C@H](NC(=O)CC[C@H](NC(=O)CCCCCCCCCCCCCCCCCCC(=O)O)C(=O)O)C(=O)O)C(=O)O)C(=O)O)NC(=O)[C@H](CO)NC(=O)[C@H](CC(=O)O)NC(=O)[C@H](CC(C)C)NC(=O)[C@](C)(Cc1ccccc1)NC(=O)[C@H](CCCCN)NC(=O)[C@H](CO)NC(=O)[C@@H](NC(=O)[C@H](CC(=O)O)NC(=O)[C@H](CO)NC(=O)[C@@H](NC(=O)[C@H](Cc1ccccc1)NC(=O)[C@@H](NC(=O)CNC(=O)[C@H](CCC(N)=O)NC(=O)C(C)(C)NC(=O)[C@@H](N)Cc1c[nH]cn1)[C@@H](C)O)[C@@H](C)O)C(C)C)C(C)C)C(=O)N[C@@H](CC(C)C)C(=O)N[C@@H](CCC(=O)O)C(=O)NC(C)(C)C(=O)NCC(=O)O` [Peptide 139], the EC50 came out at 0.63 nM in experiment [1] and 0.984 nM in experiment [2]. Further, the “% Relative Potency Ratio” value in experiment [1] came out at 3.1.

For the molecule `CC(C)C[C@H](NC(=O)[C@H](Cc1c[nH]c2ccccc12)NC(=O)[C@H](C)NC(=O)[C@@H](NC(=O)[C@H](Cc1ccccc1)NC(=O)[C@H](CC(=O)O)NC(=O)[C@H](CCC(N)=O)NC(=O)[C@H](C)NC(=O)[C@H](CCCNC(=N)N)NC(=O)[C@H](CCCCNC(=O)COCCOCCNC(=O)COCCOCCNC(=O)CC[C@H](NC(=O)CCCCCCCCCCCCCCCCC(=O)O)C(=O)O)NC(=O)[C@H](CO)NC(=O)[C@H](CC(=O)O)NC(=O)[C@H](CC(C)C)NC(=O)[C@](C)(Cc1ccccc1)NC(=O)[C@H](CCCCN)NC(=O)[C@H](CO)NC(=O)[C@@H](NC(=O)[C@H](CC(=O)O)NC(=O)[C@H](CO)NC(=O)[C@@H](NC(=O)[C@H](Cc1ccccc1)NC(=O)[C@@H](NC(=O)CNC(=O)[C@H](CCC(N)=O)NC(=O)C(C)(C)NC(=O)[C@@H](N)Cc1c[nH]cn1)[C@@H](C)O)[C@@H](C)O)C(C)C)C(C)C)C(=O)N[C@@H](CC(C)C)C(=O)N[C@@H](CCC(=O)O)C(=O)NC(C)(C)C(=O)NCC(=O)O` [Peptide 141] (H-H[Aib]QGTFTSDVSK[αMeF]LDSK([AEEA-AEEA-γGlu-C18 diacid])RAQDFVAWLLE[Aib]G-OH; N-terminus assumed), in experiment [1], the EC50 was 0.264 nM and the “% Relative Potency Ratio” value stood at 2.9. The EC50 in experiment [2] worked out at 0.392 nM.
